Test results taken from patent US11395847B2, “Acylated GLP-1/GLP-2 dual agonists” (Zealand Pharma A/S, priority 2016, dated 2022).
Read-outs that look alike come from different tables or passages of the source. *1 amine or outer side, *2 acyl side, *3 side chain or, on linkers, in order; H or OH if unused. Where a SMILES comes first, the peptide text is derived from it. Side-chain parts run from the residue outwards. [ ]: non-standard residue; d: D form. The star is where a group is joined. C20 diacid = O=C(O)CCCCCCCCCCCCCCCCCCC(=O)*; γGlu = O=C(O)[C@H](CCC(=O)[*:2])N[*:1]; AEEA = NCCOCCOCC(=O)O; Aib = CC(C)(N)C(=O)O

How the values were obtained:
[1] = Solubility assessment (turbidity absorbance at 325 nm); assay type: physicochemical
Description: A stock solution of the test peptide (2 mg/ml; determined from the weighed amount of peptide) in demineralized water adjusted to pH 2.5 with HCl was prepared, and aliquots were diluted 1:1 in 100 mM acetate buffer (pH 4.0 and pH 5.0), 100 mM histidine buffer (pH 6.0 and pH 7.0) and 100 mM phosphate buffer (pH 6.0, pH 7.0 and pH 7.5), respectively, and loaded in a standard flat-bottom, non-sterile 96-well UV Microplate. The absorbance of samples (single samples, n=1) at 280 and 325 nm was measured in an absorbance-based plate reader, which was preheated to ambient temperature (typically 25° C.).

[2] = Chemical stability (RP-HPLC normalized purity after incubation at 40° C.); assay type: physicochemical; conditions: 14-day incubation, 0.2 mg/ml, normalized purity (area-%); for pH 7 normalized stability: pH 7, 40° C.
Description: Samples of each test peptide were dissolved in MILLIQ™ water, and the pH of the solution was adjusted to pH 6, 7, 7.5 or 9 using either HCl or NaOH. The final peptide concentration was 0.2 mg/ml. Samples were placed in glass vials and incubated at 40° C. The samples were analyzed by RP-HPLC on a C18 column with gradient elution using an acetonitrile/TFA/water eluent system. The area-percentage (area-%) of the main peak after incubation time T=t (relative to time T=0) was determined by UV spectroscopy at 220 nm.
The purity was first determined as follows: Purity(area-%)=(area of main peak/total area of all peaks)×100.
The purity was then normalized between time points by setting purity at time 0 (T=0) to 100 for each pH value for a given peptide, as follows: Normalized area-% at time t(T=t)=[area-%(T=t)/area-%(T=0)]×100.
The chemical stability assessment results after 14-day incubation (in the form of normalized purity values) are summarized in Table 4.

[3] = 100 mM acetate buffer pH 4.0, ambient temperature, read-out: Solubility Acetate buffer pH 4
[4] = 100 mM acetate buffer pH 5.0, ambient temperature, read-out: Solubility Acetate buffer pH 5
[5] = 100 mM histidine buffer pH 6.0, ambient temperature, read-out: Solubility Histidine buffer pH 6
[6] = 100 mM histidine buffer pH 7.0, ambient temperature, read-out: Solubility Histidine buffer pH 7
[7] = 100 mM phosphate buffer pH 6.0, ambient temperature, read-out: Solubility Phosphate buffer pH 6
[8] = 100 mM phosphate buffer pH 7.0, ambient temperature, read-out: Solubility Phosphate buffer pH 7
[9] = 100 mM phosphate buffer pH 7.5, ambient temperature, read-out: Solubility Phosphate buffer pH 7.5

CC[C@H](C)[C@H](NC(=O)[C@H](Cc1ccccc1)NC(=O)[C@H](CC(=O)O)NC(=O)[C@H](CCCNC(=N)N)NC(=O)[C@H](C)NC(=O)[C@H](C)NC(=O)[C@H](CCC(N)=O)NC(=O)[C@H](CCCCNC(=O)CC[C@H](NC(=O)CCCCCCCCCCCCCCCCC(=O)O)C(=O)O)NC(=O)[C@H](CC(=O)O)NC(=O)[C@H](CC(C)C)NC(=O)[C@@H](NC(=O)[C@@H](NC(=O)[C@H](C)NC(=O)[C@H](CC(C)C)NC(=O)[C@H](CCC(=O)O)NC(=O)[C@H](CO)NC(=O)[C@@H](NC(=O)[C@H](Cc1ccccc1)NC(=O)[C@H](CO)NC(=O)CNC(=O)[C@H](CCC(=O)O)NC(=O)C(C)(C)NC(=O)[C@@H](N)Cc1c[nH]cn1)[C@@H](C)O)[C@@H](C)O)[C@@H](C)CC)C(=O)N[C@@H](C)C(=O)N[C@@H](Cc1c[nH]c2ccccc12)C(=O)N[C@@H](CC(C)C)C(=O)N[C@H](C(=O)N[C@@H](CC(C)C)C(=O)N[C@@H](Cc1c[nH]cn1)C(=O)N[C@@H](CCCCN)C(=O)N[C@H](C(=O)N[C@H](C(=O)N[C@@H](CC(=O)O)C(=O)O)[C@@H](C)O)[C@@H](C)CC)[C@@H](C)CC [Compound 28] (HELM PEPTIDE1{H.[Aib].E.G.S.F.T.S.E.L.A.T.I.L.D.K.Q.A.A.R.D.F.I.A.W.L.I.L.H.K.I.T.D}|PEPTIDE2{[O=C(O)CCCCCCCCCCCCCCCCC(=O)[*:2]].[gGlu]}$PEPTIDE1,PEPTIDE2,16:R3-2:R2$$$V2.0)
solubility [1, 3]: < 1000 µg/mL
solubility [1, 4]: < 1000 µg/mL
solubility [1, 5]: ≥ 1000 µg/mL
solubility [1, 6]: ≥ 1000 µg/mL
solubility [1, 7]: ≥ 1000 µg/mL
solubility [1, 8]: ≥ 1000 µg/mL
solubility [1, 9]: ≥ 1000 µg/mL
pH 7 normalized stability [2]: A (>90% normalised stability)

CC[C@H](C)[C@H](NC(=O)[C@H](Cc1ccccc1)NC(=O)[C@H](CC(=O)O)NC(=O)[C@H](CCCNC(=N)N)NC(=O)[C@H](C)NC(=O)[C@H](C)NC(=O)[C@H](CCC(N)=O)NC(=O)[C@H](CCCCNC(=O)CC[C@H](NC(=O)CCCCCCCCCCCCCCCCC(=O)O)C(=O)O)NC(=O)[C@H](CC(=O)O)NC(=O)[C@H](CC(C)C)NC(=O)[C@@H](NC(=O)[C@@H](NC(=O)[C@H](C)NC(=O)[C@H](CC(C)C)NC(=O)[C@H](CCC(=O)O)NC(=O)[C@H](CO)NC(=O)[C@@H](NC(=O)[C@H](Cc1ccccc1)NC(=O)[C@@H](NC(=O)CNC(=O)[C@H](CCC(=O)O)NC(=O)C(C)(C)NC(=O)[C@@H](N)Cc1c[nH]cn1)[C@@H](C)O)[C@@H](C)O)[C@@H](C)O)[C@@H](C)CC)C(=O)N[C@@H](C)C(=O)N[C@@H](Cc1c[nH]c2ccccc12)C(=O)N[C@@H](CC(C)C)C(=O)N[C@H](C(=O)N[C@@H](CCC(N)=O)C(=O)N[C@@H](Cc1c[nH]cn1)C(=O)N[C@@H](CCCCN)C(=O)N[C@H](C(=O)N[C@H](C(=O)N[C@@H](CC(=O)O)C(=O)O)[C@@H](C)O)[C@@H](C)CC)[C@@H](C)CC [Compound 19] (HELM PEPTIDE1{H.[Aib].E.G.T.F.T.S.E.L.A.T.I.L.D.K.Q.A.A.R.D.F.I.A.W.L.I.Q.H.K.I.T.D}|PEPTIDE2{[O=C(O)CCCCCCCCCCCCCCCCC(=O)[*:2]].[gGlu]}$PEPTIDE1,PEPTIDE2,16:R3-2:R2$$$V2.0)
solubility [1, 3]: < 1000 µg/mL
solubility [1, 4]: < 1000 µg/mL
solubility [1, 5]: ≥ 1000 µg/mL
solubility [1, 6]: ≥ 1000 µg/mL
solubility [1, 7]: ≥ 1000 µg/mL
solubility [1, 8]: ≥ 1000 µg/mL
solubility [1, 9]: ≥ 1000 µg/mL
pH 6 normalized stability ([2]; pH 6, 40° C.): A (>90% normalised stability)
pH 7 normalized stability [2]: A (>90% normalised stability)

CCCCCCCCCCCCCCCC(=O)NCCC(=O)NCCCC[C@H](NC(=O)[C@H](CC(=O)O)NC(=O)[C@H](CC(C)C)NC(=O)[C@@H](NC(=O)[C@@H](NC(=O)[C@H](C)NC(=O)[C@H](CC(C)C)NC(=O)[C@H](CCC(=O)O)NC(=O)[C@H](CO)NC(=O)[C@@H](NC(=O)[C@H](Cc1ccccc1)NC(=O)[C@H](CO)NC(=O)CNC(=O)[C@H](CCC(=O)O)NC(=O)C(C)(C)NC(=O)[C@@H](N)Cc1c[nH]cn1)[C@@H](C)O)[C@@H](C)O)[C@@H](C)CC)C(=O)N[C@@H](CCC(N)=O)C(=O)N[C@@H](C)C(=O)N[C@@H](C)C(=O)N[C@@H](CCCNC(=N)N)C(=O)N[C@@H](CC(=O)O)C(=O)N[C@@H](Cc1ccccc1)C(=O)N[C@H](C(=O)N[C@@H](C)C(=O)N[C@@H](Cc1c[nH]c2ccccc12)C(=O)N[C@@H](CC(C)C)C(=O)N[C@@H](CCC(N)=O)C(=O)N[C@@H](CCC(N)=O)C(=O)N[C@@H](Cc1c[nH]cn1)C(=O)N[C@@H](CCCCN)C(=O)N[C@H](C(=O)N[C@H](C(=O)N[C@@H](CC(=O)O)C(=O)O)[C@@H](C)O)[C@@H](C)CC)[C@@H](C)CC [Compound 32] (HELM PEPTIDE1{H.[Aib].E.G.S.F.T.S.E.L.A.T.I.L.D.K.Q.A.A.R.D.F.I.A.W.L.Q.Q.H.K.I.T.D}|PEPTIDE2{[CCCCCCCCCCCCCCCC(=O)[*:2]].[bAla]}$PEPTIDE1,PEPTIDE2,16:R3-2:R2$$$V2.0)
pH 7 normalized stability [2]: A (>90% normalised stability)

CC[C@H](C)[C@H](NC(=O)[C@H](CC(C)C)NC(=O)[C@H](Cc1c[nH]c2ccccc12)NC(=O)[C@H](C)NC(=O)[C@@H](NC(=O)[C@H](Cc1ccccc1)NC(=O)[C@H](CC(=O)O)NC(=O)[C@H](CCCNC(=N)N)NC(=O)[C@H](C)NC(=O)[C@H](C)NC(=O)[C@H](CCC(N)=O)NC(=O)[C@H](CCCCNC(=O)COCCOCCNC(=O)[C@H](CCCCN)NC(=O)[C@H](CCC(=O)O)NC(=O)[C@H](CCCCN)NC(=O)CC[C@H](NC(=O)CCCCCCCCCCCCCCCCCCC(=O)O)C(=O)O)NC(=O)[C@H](CC(=O)O)NC(=O)[C@H](CC(C)C)NC(=O)[C@@H](NC(=O)[C@@H](NC(=O)[C@H](C)NC(=O)[C@H](CC(C)C)NC(=O)[C@H](CCC(=O)O)NC(=O)[C@H](CO)NC(=O)[C@@H](NC(=O)[C@H](Cc1ccccc1)NC(=O)[C@H](CO)NC(=O)CNC(=O)[C@H](CCC(=O)O)NC(=O)C(C)(C)NC(=O)[C@@H](N)Cc1c[nH]cn1)[C@@H](C)O)[C@@H](C)O)[C@@H](C)CC)[C@@H](C)CC)C(=O)N[C@@H](C)C(=O)N[C@@H](Cc1c[nH]cn1)C(=O)N[C@@H](CCCCN)C(=O)N[C@H](C(=O)N[C@H](C(=O)N[C@@H](CC(=O)O)C(=O)O)[C@@H](C)O)[C@@H](C)CC [Compound 58] (HELM PEPTIDE1{H.[Aib].E.G.S.F.T.S.E.L.A.T.I.L.D.K.Q.A.A.R.D.F.I.A.W.L.I.A.H.K.I.T.D}|PEPTIDE2{[O=C(O)CCCCCCCCCCCCCCCCCCC(=O)[*:2]].[gGlu].K.E.K.[O=C(COCCOCCN[*:1])[*:2]]}$PEPTIDE1,PEPTIDE2,16:R3-6:R2$$$V2.0)
pH 7 normalized stability [2]: A (>90% normalised stability)

CC[C@H](C)[C@H](NC(=O)[C@H](Cc1ccccc1)NC(=O)[C@H](CC(=O)O)NC(=O)[C@H](CCCNC(=N)N)NC(=O)[C@H](C)NC(=O)[C@H](C)NC(=O)[C@H](CCC(N)=O)NC(=O)[C@H](CCCCNC(=O)COCCOCCNC(=O)COCCOCCNC(=O)CC[C@H](NC(=O)CCCCCCCCCCCCCCCCCCC(=O)O)C(=O)O)NC(=O)[C@H](CC(=O)O)NC(=O)[C@H](CC(C)C)NC(=O)[C@@H](NC(=O)[C@@H](NC(=O)[C@H](C)NC(=O)[C@H](CC(C)C)NC(=O)[C@H](CCC(=O)O)NC(=O)[C@H](CO)NC(=O)[C@@H](NC(=O)[C@H](Cc1ccccc1)NC(=O)[C@H](CO)NC(=O)CNC(=O)[C@H](CCC(=O)O)NC(=O)C(C)(C)NC(=O)[C@@H](N)Cc1c[nH]cn1)[C@@H](C)O)[C@@H](C)O)[C@@H](C)CC)C(=O)N[C@@H](C)C(=O)N[C@@H](Cc1c[nH]c2ccccc12)C(=O)N[C@@H](CC(C)C)C(=O)N[C@@H](CCCCN)C(=O)N[C@@H](CCC(N)=O)C(=O)N[C@@H](Cc1c[nH]cn1)C(=O)N[C@@H](CCCCN)C(=O)N[C@H](C(=O)N[C@H](C(=O)N[C@@H](CC(=O)O)C(=O)O)[C@@H](C)O)[C@@H](C)CC [Compound 34] (H-H[Aib]EGSFTSELATILDK([AEEA-AEEA-γGlu-C20 diacid])QAARDFIAWLKQHKITD-OH)
pH 7 normalized stability [2]: A (>90% normalised stability)
